In PMC3281204 (2011):

System: Modified anti-cocaine aptamer (DNA, aptamer) ATCTCGGGAGACAAGGATAAATCCTTCAATGAAGTGGGTCTCCC
Assay: fluorescence dequenching
Conditions: apparent; displaced strand 5'-[…]-3'-dabcyl quencher oligo; cocaine 0-5 mM

K D: 134.4 ± 7.2 µM
SMILES: COC(=O)[C@H]1[C@@H](OC(=O)c2ccccc2)C[C@@H]2CC[C@H]1N2C
